These results are taken from patent publication US20120083476A1, “HETEROARYL-SUBSTITUTED SPIROCYCLIC DIAMINE UREA MODULATORS OF FATTY ACID AMIDE HYDROLASE” (Janssen Pharmaceutica NV, priority 2009, published 2012).

One assay has as its system CREAE mice. As to conditions: Baker 2001; cited from earlier work.
In assay [1] the test system is rats. The note with it: WO 02/087569; cited from earlier work.
In assay [2] the test system is rats. As to conditions: WO 02/087569; cited from earlier work. The source holds these as a separate data set.
Assay [3] deals with T1, FAAH (Homo sapiens, UniProt O00519).
T1 sequence (O00519 1-579): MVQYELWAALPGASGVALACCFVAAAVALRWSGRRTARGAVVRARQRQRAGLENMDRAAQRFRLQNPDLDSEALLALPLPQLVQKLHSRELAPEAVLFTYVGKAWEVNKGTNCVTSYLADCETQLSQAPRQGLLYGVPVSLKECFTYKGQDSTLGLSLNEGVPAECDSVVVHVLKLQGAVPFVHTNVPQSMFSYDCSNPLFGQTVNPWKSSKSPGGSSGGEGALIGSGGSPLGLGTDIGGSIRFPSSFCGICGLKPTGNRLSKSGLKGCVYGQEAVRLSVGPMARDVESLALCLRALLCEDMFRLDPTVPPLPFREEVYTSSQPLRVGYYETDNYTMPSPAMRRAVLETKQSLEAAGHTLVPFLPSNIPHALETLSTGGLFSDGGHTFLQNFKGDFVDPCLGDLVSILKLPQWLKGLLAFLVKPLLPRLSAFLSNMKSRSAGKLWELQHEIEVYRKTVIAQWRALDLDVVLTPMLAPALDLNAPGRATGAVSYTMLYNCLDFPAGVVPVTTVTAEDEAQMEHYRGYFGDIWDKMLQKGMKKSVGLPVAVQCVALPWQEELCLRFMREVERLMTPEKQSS
In words: Assay Method 1: human FAAH assay (3H-anandamide hydrolysis in cell homogenate). The format is biochemical. Set-up: expressed in transfected cells; host or cells: SK-N-MC cells stably transfected with human FAAH cDNA (G418 selection); alternatively T84 cell pellets. The note with it: read-out: Assay 1 IC50. In outline:
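Homogenates of T84 cells or SK-N-MC cells stably transfected with human FAAH, in pH 9 Tris/EDTA buffer with 0.02% Triton X-100. Incubated 1 h at rt with compound and 80 nM (final) [3H-ethanolamine]-anandamide. Released 3H-ethanolamine separated on charcoal filters and counted by scintillation.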

A further assay deals with T2, Rat FAAH (Rattus norvegicus, UniProt P97612).
T2 construct: expressed in transfected cells; host or cells: SK-N-MC cells stably transfected with rat FAAH cDNA (G418 selection)
T2 sequence (P97612 1-579): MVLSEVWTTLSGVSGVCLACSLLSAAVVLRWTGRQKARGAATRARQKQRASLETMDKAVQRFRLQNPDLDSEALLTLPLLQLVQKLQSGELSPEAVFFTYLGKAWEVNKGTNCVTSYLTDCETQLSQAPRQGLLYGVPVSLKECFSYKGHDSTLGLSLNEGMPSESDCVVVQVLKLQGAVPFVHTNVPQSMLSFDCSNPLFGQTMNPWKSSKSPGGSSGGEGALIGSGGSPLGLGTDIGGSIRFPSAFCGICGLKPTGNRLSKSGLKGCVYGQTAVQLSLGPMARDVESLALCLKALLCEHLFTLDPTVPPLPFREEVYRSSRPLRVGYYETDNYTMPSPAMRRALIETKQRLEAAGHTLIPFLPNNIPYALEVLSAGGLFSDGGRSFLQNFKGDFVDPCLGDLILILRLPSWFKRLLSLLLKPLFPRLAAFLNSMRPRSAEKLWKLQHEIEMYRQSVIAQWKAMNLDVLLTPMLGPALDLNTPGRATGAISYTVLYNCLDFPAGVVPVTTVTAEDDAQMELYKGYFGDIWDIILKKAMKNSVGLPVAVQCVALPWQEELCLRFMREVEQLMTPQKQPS
Put plainly: Assay Method 2: rat FAAH assay (3H-anandamide hydrolysis in cell homogenate). The format is biochemical. As to conditions: read-out: Assay 2 IC50. In outline:
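Homogenates of T84 cells or SK-N-MC cells stably transfected with rat FAAH, in pH 9 Tris/EDTA/glycerol/Triton buffer, incubated 1 h at room temperature with 3H-anandamide. Released labeled ethanolamine separated from substrate on activated charcoal and counted by scintillation; values averaged over runs.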

Assay [4] relates to rats. As to conditions: cited from earlier work.
Assay [5] concerns rats. As to conditions: WO 04/033652; cited from earlier work.
Assay [6] deals with T1, FAAH. The note with it: WO 04/033652; cited from earlier work.
The test system of assay [7] is rats. As to conditions: rat; Kathuria 2003; cited from earlier work.

Regarding `CCCCCCCCCCCCCCCCS(=O)(=O)F` [AM374], the “spasticity in CREAE mice” value in the assay on CREAE mice is listed as “significantly reduce spasticity”.

For the compound `Cc1nc(-c2ccccc2)c(-c2ccccc2)n1CCCCCCNC(=O)Oc1ccccc1F` [BMS-1], the “analgesic effect in Hargraves test of acute thermal nociception” value in the assay on rats [1] is “analgesic effect”. The “analgesic effect in Chung spinal nerve ligation model” value with rats [2] is listed as “analgesic effect”.

Consider `O=C(Nc1cccnc1)N1CC2(CCN(Cc3cccc(Oc4cccc(Cl)c4)c3)CC2)C1` [Example 112, 7-(3-(3-chlorophenoxy)benzyl)-N-(pyridin-3-yl)-2,7-diazaspiro[3.5]nonane-2-carboxamide], for which the IC50 (commonly the midpoint of a concentration-inhibition curve) at FAAH [3] turned out to be 0.06 µM; on Rat FAAH it was 0.84 µM.

Turning to `O=C(Nc1cccnc1)N1CC2(CCN(Cc3cccc(Oc4ccc(F)c(C(F)(F)F)c4)c3)CC2)C1` [Example 113, 7-(3-(4-fluoro-3-(trifluoromethyl)phenoxy)benzyl)-N-(pyridin-3-yl)-2,7-diazaspiro[3.5]nonane-2-carboxamide], the IC50 on FAAH [3] came to 0.56 µM; on Rat FAAH, 5 µM.

With `O=C(Nc1cccnc1)N1CC2(CCN(Cc3cccc(Oc4cccc(C(F)(F)F)c4)c3)CC2)C1` [Example 114, N-(pyridin-3-yl)-7-(3-(3-(trifluoromethyl)phenoxy)benzyl)-2,7-diazaspiro[3.5]nonane-2-carboxamide], the concentration for half-maximal inhibition (IC50) came out at 0.8 µM on FAAH [3] and 4 µM at Rat FAAH.

In the case of `O=C(Nc1cccnc1)N1CC2(CCN(Cc3cccc(Oc4cccc(OC(F)(F)F)c4)c3)CC2)C1` [Example 115, N-(pyridin-3-yl)-7-(3-(3-(trifluoromethoxy)phenoxy)benzyl)-2,7-diazaspiro[3.5]nonane-2-carboxamide], the results for the IC50 at FAAH [3] and at Rat FAAH were 0.75 µM and 8 µM, respectively.

In the case of `N#Cc1cccc(Oc2cccc(CN3CCC4(CC3)CN(C(=O)Nc3cccnc3)C4)c2)c1` [Example 116, 7-(3-(3-cyanophenoxy)benzyl)-N-(pyridin-3-yl)-2,7-diazaspiro[3.5]nonane-2-carboxamide], the half-inhibitory concentration (IC50) at FAAH [3] came out at 0.07 µM; on Rat FAAH it was 7.07 µM.

Consider `O=C(Nc1cccnc1)N1CC2(CCN(Cc3cccc(Oc4cccc(SC(F)(F)F)c4)c3)CC2)C1` [Example 117, N-(pyridin-3-yl)-7-(3-(3-(trifluoromethylthio)phenoxy)benzyl)-2,7-diazaspiro[3.5]nonane-2-carboxamide], for which the IC50 at FAAH [3] and on Rat FAAH was 3 µM each time.

Regarding `O=C(Nc1cccnc1)N1CC2(CCN(Cc3cccc(Oc4ccc5c(c4)OC(F)(F)O5)c3)CC2)C1` [Example 118, 7-[3-(2,2-Difluoro-benzo[1,3]-dioxol-5-yloxy)-benzyl]-2,7-diaza-spiro[3.5]nonane-2-carboxylic acid pyridin-3-ylamide], the IC50 on FAAH [3] came to 0.16 µM; on Rat FAAH it was 0.6 µM.

For `O=C(Nc1cccnc1)N1CC2(CCN(Cc3cccc(Oc4ccccc4)c3)CC2)C1` [Example 119, 7-(3-Phenoxy-benzyl)-2,7-diaza-spiro[3.5]nonane-2-carboxylic acid pyridin-3-ylamide], the IC50 is 0.1 µM on FAAH [3] and 4 µM on Rat FAAH.

Take `O=C(Nc1cccnc1)N1CC2(CCN(Cc3cccc(Oc4ccccc4Cl)c3)CC2)C1` [Example 121, 7-[3-(2-Chloro-phenoxy)-benzyl]-2,7-diaza-spiro[3.5]nonane-2-carboxylic acid pyridin-3-ylamide]: the IC50 at FAAH [3] came to 0.03 µM; at Rat FAAH, 1.2 µM.

Turning to `O=C(Nc1cccnc1)N1CC2(CCN(Cc3cccc(Oc4cccc(Br)c4)c3)CC2)C1` [Example 122, 7-[3-(3-Bromo-phenoxy)-benzyl]-2,7-diaza-spiro[3.5]nonane-2-carboxylic acid pyridin-3-ylamide], the IC50 on FAAH [3] stood at 0.05 µM; on Rat FAAH, 1 µM.

As for `O=C(Nc1cccnc1)N1CC2(CCN(Cc3cccc(Oc4ccc(Br)cc4)c3)CC2)C1` [Example 123, 7-[3-(4-Bromo-phenoxy)-benzyl]-2,7-diaza-spiro[3.5]nonane-2-carboxylic acid pyridin-3-ylamide], the IC50 on FAAH [3] came to 0.2 µM; on Rat FAAH, 0.03 µM.

`O=C(Nc1cccnc1)N1CC2(CCN(Cc3cccc(Oc4ccc(F)c(F)c4)c3)CC2)C1` [Example 124, 7-[3-(3,4-Difluoro-phenoxy)-benzyl]-2,7-diaza-spiro[3.5]nonane-2-carboxylic acid pyridin-3-ylamide]: the IC50 at FAAH [3] worked out at 0.3 µM; on Rat FAAH, 0.4 µM.

With `O=C(Nc1cccnc1)N1CC2(CCN(Cc3cccc(Oc4ccc(OC(F)(F)F)cc4)c3)CC2)C1` [Example 125, 7-[3-(4-Trifluoromethoxy-phenoxy)-benzyl]-2,7-diaza-spiro[3.5]nonane-2-carboxylic acid pyridin-3-ylamide], the IC50 was 2.6 µM at FAAH [3] and 3 µM at Rat FAAH.

Consider `O=C(Nc1cccnc1)N1CC2(CCN(Cc3cccc(Oc4ccc(C(F)(F)F)cc4)c3)CC2)C1` [Example 126, 7-[3-(4-Trifluoromethyl-phenoxy)-benzyl]-2,7-diaza-spiro[3.5]nonane-2-carboxylic acid pyridin-3-ylamide], for which the IC50 on FAAH [3] turned out to be 0.16 µM; at Rat FAAH it was 1 µM.

On to `N#Cc1ccc(Oc2cccc(CN3CCC4(CC3)CN(C(=O)Nc3cccnc3)C4)c2)cc1` [Example 127, 7-[3-(4-Cyano-phenoxy)-benzyl]-2,7-diaza-spiro[3.5]nonane-2-carboxylic acid pyridin-3-ylamide], for which the IC50 at FAAH [3] came out at 4 µM; on Rat FAAH it was 1.1 µM.

`O=C(Nc1cccnc1)N1CC2(CCN(Cc3cccc(Oc4ccc(S(=O)(=O)C(F)(F)F)cc4)c3)CC2)C1` [Example 129, 7-[3-(4-Trifluoromethanesulfonyl-phenoxy)-benzyl]-2,7-diaza-spiro[3.5]nonane-2-carboxylic acid pyridin-3-ylamide]: the IC50 came out at 1.7 µM on FAAH [3] and 8 µM on Rat FAAH.

As to `O=C(Nc1cccnc1)N1CC2(CCN(Cc3cccc(Oc4ccc5ncccc5c4)c3)CC2)C1` [Example 130, 7-[3-(Quinolin-6-yloxy)-benzyl]-2,7-diaza-spiro[3.5]nonane-2-carboxylic acid pyridin-3-ylamide], the IC50 was found to be 0.83 µM on FAAH [3] and 2.5 µM at Rat FAAH.

For the compound `O=C(Nc1cccnc1)N1CC2(CCN(Cc3cccc(C#Cc4ccccc4Cl)c3)CC2)C1` [Example 131, 7-[3-(2-Chloro-phenylethynyl)-benzyl]-2,7-diaza-spiro[3.5]nonane-2-carboxylic acid pyridin-3-ylamide], the IC50 at FAAH [3] was 0.33 µM; at Rat FAAH it was 3 µM.

For the compound `O=C(CCCCCCc1ccccc1)c1ncc(-c2ccccn2)o1` [OL-135], the “analgesia in hot plate test” value with rats [4] is on record as “analgesic activity”. Besides, in the assay with rats [5], the “analgesic activity in tail emersion test” value was “analgesic activity”. The “inhibition of FAAH” value on FAAH [6] was “potent inhibitor”.

Consider `NC(=O)c1cccc(-c2cccc(OC(=O)NC3CCCCC3)c2)c1` [URB-597], for which the “analgesic efficacy in formalin test” value in the assay with rats [7] is on record as “analgesic efficacy”. In addition, the “analgesia in hot plate test” value in the assay on rats [4] was “analgesic efficacy”.
